US4758555A, “Method for treating convulsions and epilepsy with organic copper compounds” (priority 1986, dated 1988)

How the values were obtained:
Type in all cases: in vivo, male Carworth Farms #1 mice or Sprague-Dawley rats
[1] = Maximal Electroshock Seizure Test; settings: for ED50 for inhibition of seizures, MES (Phase II) / Lowest effective dose, MES (Phase I): Table X; for ED50 for inhibition of seizures, MES (Phase II): at time of peak activity; for Lowest active dose, MES (Phase I): Table V; for ED50: Mus musculus, ip, read-out: ED50 for inhibition of seizures, MES (Phase II)
[2] = Subcutaneous Pentylenetetrazol (Metrazol) Seizure Threshold Test; settings: for ED50 for inhibition of seizures, Metrazol (Phase II) / Lowest effective dose, Metrazol (Phase I): Table X; for ED50 for inhibition of seizures, Metrazol (Phase II): at time of peak activity; for Lowest active dose, Metrazol (Phase I): Table V; for ED50: Mus musculus, ip, read-out: ED50 for inhibition of seizures, Metrazol (Phase II)
[3] = Anticonvulsant activity, both or unspecified seizure models; settings: for Time of peak activity (Phase II): Table X, IP, challenge time; for Anticonvulsant activity (in words): running text

CCC1(CCC(C)C)C(=O)[N-]C(=O)NC1=O.CCC1(CCC(C)C)C(=O)[N-]C(=O)NC1=O.CCC1(CCC(C)C)C(=O)[N-]C(=O)NC1=O.CCC1(CCC(C)C)C(=O)[N-]C(=O)NC1=O.O.O.O.O.O.[Cu+2].[Cu+2] [Cu(II)(Amobarbital)2 (H2 O)2.5]
ED50 for inhibition of seizures, MES (Phase II) ([1]; IP): 87 mg/kg
Lowest effective dose, MES (Phase I) ([1]; IP, challenge time 30 min): 300 milligrams per kilogram of bod
Lowest effective dose, MES (Phase I) ([1]; IP, challenge time 4 hrs): I
ED50 for inhibition of seizures, Metrazol (Phase II) ([2]; IP): 87 mg/kg
Lowest effective dose, Metrazol (Phase I) ([2]; IP, challenge time 30 min): 30 milligrams per kilogram of bod
Lowest effective dose, Metrazol (Phase I) ([2]; IP, challenge time 4 hrs): I
Time of peak activity (Phase II) [3]: 0.5 h

CCC1(c2ccccc2)C(=O)[N-]C(=O)NC1=O.CCC1(c2ccccc2)C(=O)[N-]C(=O)NC1=O.[Cu+2].c1ccncc1.c1ccncc1 [Cu(II)(Phenobarbital)2 (pyridine)2]
ED50 for inhibition of seizures, MES (Phase II) ([1]; IP): 17 mg/kg
Lowest effective dose, MES (Phase I) ([1]; IP, challenge time 30 min): 100 milligrams per kilogram of bod
Lowest effective dose, MES (Phase I) ([1]; IP, challenge time 4 hrs): 100 milligrams per kilogram of bod
Lowest effective dose, MES (Phase I) ([1]; SC, challenge time 30 min): I
Lowest effective dose, MES (Phase I) ([1]; SC, challenge time 4 hrs): 30 milligrams per kilogram of bod
ED50 for inhibition of seizures, Metrazol (Phase II) ([2]; IP): 9 mg/kg
Lowest effective dose, Metrazol (Phase I) ([2]; IP, challenge time 30 min): 30 milligrams per kilogram of bod
Lowest effective dose, Metrazol (Phase I) ([2]; IP, challenge time 4 hrs): 30 milligrams per kilogram of bod
Lowest effective dose, Metrazol (Phase I) ([2]; SC, challenge time 30 min): I
Lowest effective dose, Metrazol (Phase I) ([2]; SC, challenge time 4 hrs): 30 milligrams per kilogram of bod
Time of peak activity (Phase II) [3]: 2 h

O.O.O.O=C([O-])c1cc(Br)cc(Br)c1O.O=C([O-])c1cc(Br)cc(Br)c1O.[Cu+2] [Cu(II)(3,5-dibromosalicylate)2 (H2 O)3]
Anticonvulsant activity (in words) [3]: effective in preventing both the Maximal Electroshock and Metrazol-inducedseizures in Phase I studies

Cc1ncc(CO)c(C=N[C@@H](CO)C(=O)[O-])c1[O-].O.[Cu+2] [Cu(II)Pyridoxylidene-L-serinate(H2 O)]
Lowest active dose, MES (Phase I) ([1]; IP, challenge time 30 min): I
Lowest active dose, MES (Phase I) ([1]; IP, challenge time 4 hrs): I
Lowest active dose, Metrazol (Phase I) ([2]; IP, challenge time 30 min): 100 mg/kg of body weight
Lowest active dose, Metrazol (Phase I) ([2]; IP, challenge time 4 hrs): 100 mg/kg of body weight
Anticonvulsant activity (in words) [3]: more effective but only protected against the Metrazol-induced seizure

Cc1ncc(CO)c(C=NCC(=O)[O-])c1[O-].Cc1ncc(CO)c(C=NCC(=O)[O-])c1[O-].O.O.O.[Cu+2].[Cu+2] [Cu(II)Pyridoxylideneglycinate(H2 O)1.5]
Lowest active dose, MES (Phase I) ([1]; IP, challenge time 30 min): 300 mg/kg of body weight
Lowest active dose, MES (Phase I) ([1]; IP, challenge time 4 hrs): I
Lowest active dose, Metrazol (Phase I) ([2]; IP, challenge time 30 min): 100 mg/kg of body weight
Lowest active dose, Metrazol (Phase I) ([2]; IP, challenge time 4 hrs): I
Anticonvulsant activity (in words) [3]: protected against both types of seizure

CN1C(=O)CN=C(c2ccccc2)c2cc(Cl)ccc21 [Diazepam, reference compound]
ED50 [1]: 19 mg/kg
ED50 [2]: 0.17 mg/kg
Time of peak activity (Phase II) [3]: 1 h

O=C([O-])c1ccccc1O.O=C([O-])c1ccccc1O.[Cu+2].c1ccncc1.c1ccncc1 [Cu(II)(salicylate)2 (pyridine)2]
Anticonvulsant activity, Maximal Electroshock (Phase I) ([1]; Table II, IP): I
Onset and duration of anticonvulsant action (in words) [3]: activity representative of a compound with rapid onset

Cu(II)(L-glutamate)2
Anticonvulsant activity (in words) [3]: found to have anticonvulsant activity

CC(C)(C)c1ccc(C(=O)[O-])c(O)c1.CC(C)(C)c1ccc(C(=O)[O-])c(O)c1.CC(C)(C)c1ccc(C(=O)[O-])c(O)c1.CC(C)(C)c1ccc(C(=O)[O-])c(O)c1.O.[Cu+2].[Cu+2] [Cu(II)2 (4-tertiarybutylsalicylate)2.1/2H2 O]
Anticonvulsant activity, Maximal Electroshock (Phase I) ([1]; Table II, SC): I
Anticonvulsant activity (in words) [3]: effective at the higher doses studied and for prolonged periods of up to 4 hours

CCC1(c2ccccc2)NC(=O)NC1=O.CO.[OH][Cu][Cl] (centres unmarked) [Cu(II)5-ethyl-5-phenylhydantoin(HO)(Cl)(CH3 OH)]
Lowest effective dose, MES (Phase I) ([1]; IP, challenge time 30 min): 30 milligrams per kilogram of bod
Lowest effective dose, MES (Phase I) ([1]; IP, challenge time 4 hrs): I
Lowest effective dose, Metrazol (Phase I) ([2]; IP, challenge time 30 min): 30 milligrams per kilogram of bod
Lowest effective dose, Metrazol (Phase I) ([2]; IP, challenge time 4 hrs): I

CC(=O)Oc1c(Br)cc(Br)cc1C(=O)[O-].CC(=O)Oc1c(Br)cc(Br)cc1C(=O)[O-].[Cu+2] [Cu(II)2 (3,5-dibromoacetylsalicylate)4]
Anticonvulsant activity, Metrazol (Phase I) ([2]; Table I, SC): I
Anticonvulsant activity (in words) [3]: effective in protecting against both models of seizure

CCCC(C)C1(CC)C(=O)[N-]C(=S)NC1=O.CCCC(C)C1(CC)C(=O)[N-]C(=S)NC1=O.[Cu+2] (centres unmarked) [Cu(II)(N--thiopental)2 (H2 O)2.5]
Lowest effective dose, MES (Phase I) ([1]; IP, challenge time 30 min): I
Lowest effective dose, MES (Phase I) ([1]; IP, challenge time 4 hrs): I
Lowest effective dose, MES (Phase I) ([1]; SC, challenge time 30 min): I
Lowest effective dose, MES (Phase I) ([1]; SC, challenge time 4 hrs): I
Lowest effective dose, Metrazol (Phase I) ([2]; IP, challenge time 30 min): I
Lowest effective dose, Metrazol (Phase I) ([2]; IP, challenge time 4 hrs): I
Lowest effective dose, Metrazol (Phase I) ([2]; SC, challenge time 30 min): I
Lowest effective dose, Metrazol (Phase I) ([2]; SC, challenge time 4 hrs): 30 milligrams per kilogram of bod

CC(=O)Oc1c(I)cc(I)cc1C(=O)[O-].CC(=O)Oc1c(I)cc(I)cc1C(=O)[O-].O.O.O.[Cu+2] [Cu(II)2 (3,5-diiodoacetylsalicylate)4 (H2 O)6]
Anticonvulsant activity, Maximal Electroshock (Phase I) ([1]; Table I, IP): I
Anticonvulsant activity (in words) [3]: effective in protecting against both models of seizure

O=C([O-])c1ccccc1OC(=O)C12CC3CC(CC(C3)C1)C2.O=C([O-])c1ccccc1OC(=O)C12CC3CC(CC(C3)C1)C2.O=C([O-])c1ccccc1OC(=O)C12CC3CC(CC(C3)C1)C2.O=C([O-])c1ccccc1OC(=O)C12CC3CC(CC(C3)C1)C2.[Cu+2].[Cu+2] [Cu(II)2 (adamantylsalicylate)4]
Anticonvulsant activity, Maximal Electroshock (Phase I) ([1]; Table I, SC): I
Anticonvulsant activity (in words) [3]: anticonvulsant activity at 30 minutes following subcutaneous injection at 30 and 300 mg/kg

CC(C)(C)c1cc(C(=O)[O-])c(O)c(C(C)(C)C)c1.CC(C)(C)c1cc(C(=O)[O-])c(O)c(C(C)(C)C)c1.[Cu+2] [Cu(II)(3,5-ditertiarybutylsalicylate)2]
Anticonvulsant activity (in words) [3]: effective at the higher doses studied and for prolonged periods of up to 4 hours
Anticonvulsant activity (in words) ([3]; listed as 3,5-ditertiarybutylsalicylate): effective in preventing both the Maximal Electroshock and Metrazol-inducedseizures in Phase I studies

CC(C)C[C@H](N)C(=O)[O-].CC(C)C[C@H](N)C(=O)[O-].[Cu+2] [Cu(II)(L-leucinate)2]
Anticonvulsant activity (in words) [3]: found to have anticonvulsant activity

CCCC(C)C1(CC)C(=O)N=C([S-])NC1=O.CCCC(C)C1(CC)C(=O)N=C([S-])NC1=O.O.O.[Cu+2] (centres unmarked) [Cu(II)(S--thiopental)2 (H2 O)2]
Lowest effective dose, MES (Phase I) ([1]; IP, challenge time 30 min): I
Lowest effective dose, MES (Phase I) ([1]; IP, challenge time 4 hrs): I
Lowest effective dose, MES (Phase I) ([1]; SC, challenge time 30 min): I
Lowest effective dose, MES (Phase I) ([1]; SC, challenge time 4 hrs): I
Lowest effective dose, Metrazol (Phase I) ([2]; IP, challenge time 30 min): I
Lowest effective dose, Metrazol (Phase I) ([2]; IP, challenge time 4 hrs): I
Lowest effective dose, Metrazol (Phase I) ([2]; SC, challenge time 30 min): I
Lowest effective dose, Metrazol (Phase I) ([2]; SC, challenge time 4 hrs): I

O.O.O=C([O-])c1cc(Cl)cc(Cl)c1O.O=C([O-])c1cc(Cl)cc(Cl)c1O.[Cu+2] [Cu(II)(3,5-dichlorosalicylate)2 (H2 O)2]
Anticonvulsant activity, Maximal Electroshock (Phase I) ([1]; Table II, SC): I
Anticonvulsant activity (in words) [3]: effective in preventing both the Maximal Electroshock and Metrazol-inducedseizures in Phase I studies

CC(C)c1cc(C(=O)[O-])c(O)c(C(C)C)c1.CC(C)c1cc(C(=O)[O-])c(O)c(C(C)C)c1.[Cu+2] [Cu(II)(3,5-diisopropylsalicylate)2]
Anticonvulsant activity (in words) [3]: effective in preventing both the Maximal Electroshock and Metrazol-inducedseizures in Phase I studies

Cu(II)2 (benzoate)4
Anticonvulsant activity (in words) [3]: effective in protecting against both Maximal Electroshock and Metrazol-induced seizures

CC(=O)Oc1ccccc1C(=O)O [Aspirin, acetylsalicylate, reference compound]
Anticonvulsant activity, Maximal Electroshock ([1]; Table VI, IP): I
Anticonvulsant activity, Metrazol ([2]; Table VI, IP): I

N[C@@H](CO)C(=O)[O-].N[C@@H](CO)C(=O)[O-].[Cu+2] [Cu(II)(L-serinate)2]
Anticonvulsant activity (in words) [3]: found to have anticonvulsant activity

[Cu+2].[O-]c1ccccc1C=NCCN=Cc1ccccc1[O-] [Cu(II) bissalicylatoethyleneimine]
Anticonvulsant activity, Maximal Electroshock (Phase I) ([1]; Table IV, IP): I
Anticonvulsant activity, Maximal Electroshock (Phase I) ([1]; Table IV, SC): I
Anticonvulsant activity, Metrazol (Phase I) ([2]; Table IV, SC): I

CC(=O)Oc1ccccc1C(=O)[O-].CC(=O)Oc1ccccc1C(=O)[O-].CC(=O)Oc1ccccc1C(=O)[O-].CC(=O)Oc1ccccc1C(=O)[O-].[Cu+2].[Cu+2] [Cu(II)2 (acetylsalicylate)4]
Anticonvulsant activity, Maximal Electroshock (Phase I) ([1]; Table I, SC): I
Anticonvulsant activity (in words) [3]: activity at 30 minutes, 6 hours and 8 hours following subcutaneous injection of the entire range of doses studied

Cu(II)5-ethyl-5-phenylhydantoin(H2 O)2.5
Lowest effective dose, MES (Phase I) ([1]; IP, challenge time 30 min): 100 milligrams per kilogram of bod
Lowest effective dose, MES (Phase I) ([1]; IP, challenge time 4 hrs): 100 milligrams per kilogram of bod
Lowest effective dose, MES (Phase I) ([1]; SC, challenge time 30 min): 100 milligrams per kilogram of bod
Lowest effective dose, MES (Phase I) ([1]; SC, challenge time 4 hrs): 30 milligrams per kilogram of bod
Lowest effective dose, Metrazol (Phase I) ([2]; IP, challenge time 30 min): 300 milligrams per kilogram of bod
Lowest effective dose, Metrazol (Phase I) ([2]; IP, challenge time 4 hrs): 100 milligrams per kilogram of bod
Lowest effective dose, Metrazol (Phase I) ([2]; SC, challenge time 30 min): 30 milligrams per kilogram of bod
Lowest effective dose, Metrazol (Phase I) ([2]; SC, challenge time 4 hrs): 100 milligrams per kilogram of bod

N[C@@H](Cc1c[nH]c2ccccc12)C(=O)[O-].N[C@@H](Cc1c[nH]c2ccccc12)C(=O)[O-].[Cu+2] [Cu(II)(L-tryptophanate)2]
Anticonvulsant activity (in words) [3]: found to have anticonvulsant activity

O=C1CN=C(c2ccccc2Cl)c2cc([N+](=O)[O-])ccc2N1 [Clonazepam, reference compound]
ED50 [1]: 19 mg/kg
ED50 [2]: 0.2 mg/kg
